Results reported in patent publication US20230341377A1, “DISCONNECTION AGENTS” (DC Europa Limited, priority 2020, published 2023).

Columns and labels:
[1] = tested on: Hs578 cell line for human breast cancer, U373 cell line of human glioblastoma, and HepG2 hepatocellular carcinoma cells; assay: SMS assay (small molecule sharing), cell dye-sharing between cancer cells, cell lines pooled; assay type: cell-based; details: for effect on cell dye-sharing in the SMS assay: concentration range of 0.1 to 30 μM; for inhibition of cell dye-sharing in the SMS assay: various doses that are not cytotoxic, in one or more cell lines
Text: (§1) The SMS assay was developed to assess the transfer of cell dye (for example the acetoxymethyl [AM]-based Calcein AM), between cancer cells. The SMS assay can be applied to any cell lines forming tumour networks such as tumour microtubes (TM) or tunneling nanotubes (TNT), which enable the transfer of molecules across cells. The SMS assay can be used to assess networking capabilities of any cancer cell lines including HepG2 hepatocellular carcinoma cells, Hs578T cell line for human breast cancer, and U373 cell line for human glioblastoma.
(§2) The SMS assay is illustrated in FIG. 1. For the SMS assay, two sets of cells are stained with the cell dye of choice and a customary cell tracker dye (for example cell tracker blue) using established staining techniques (steps 1 and 2). Each set of cells are then co-incubated with the compound of interest to assess its capabilities to modulate the cells small molecule sharing characteristics (step 3). Then the two sets of cells are combined on a plate, for example at a ratio of 1:1, and cultured in the presence of the compound of interest (Step 4).
(§3) Finally, live cells are evaluated for viability and analyzed by flow cytometry for the uptake of cell dye in the […] cells (Step 5). The comparison of cell tracker uptake against positive and negative control enables the assessment of the compound's ability to modulate the tumour networks including those formed by TM and TNTs
(§4) The SMS assay has been applied to assess the modulation of network sharing capabilities of Protein Kinase C Modulators (PKCm) at various concentrations in the Hs578 cell line for human breast cancer, U373 cell line of human glioblastoma, and HepG2 hepatocellular carcinoma cells. PBS vehicle was used as negative control and the PKCm PHORBOL 12-MYRISTATE 13-ACETATE (PMA) at a concentration of 5 nM was used as the positive control.
(§5) FIG. 2A and FIG. 2B show the percentage of cell tracker cells that were accepting the cell dye transfer from separately stained donor cells according to the SMS assay of Example. The percentage of acceptor cells detected is shown in comparison to vehicle (upper horizontal line) and PMA at 5-10 nM concentration (lower horizontal line). Active PKCm in the SMS assay (FIG. 2A) show a decrease in acceptor cells relative to vehicle at certain concentration. […] The upper limit of the tested concentrations was determined as the maximal non-cytotoxic dose.

Hs578T cells = assay: SMS assay in Hs578T cells; assay type: cell-based, human; details: versus vehicle and PMA (5 nM), FIG. 2A, 2B, 2D, 2E
Text: as §1, §2, §3, §4, §5

PKCβI/PKCβII = tested on: PKCβI/PKCβII; design: key: +—activation; ++—strong activation; details: cited from earlier work; for activation of PKCβI/PKCβII: cPKCs, gene PRKCB
PKCε = biological target: T1, PKCε (Homo sapiens, UniProt Q02156); design: key: +—activation; ++—strong activation; details: nPKCs, gene PRKCE; cited from earlier work
T1 sequence (Q02156 1-737): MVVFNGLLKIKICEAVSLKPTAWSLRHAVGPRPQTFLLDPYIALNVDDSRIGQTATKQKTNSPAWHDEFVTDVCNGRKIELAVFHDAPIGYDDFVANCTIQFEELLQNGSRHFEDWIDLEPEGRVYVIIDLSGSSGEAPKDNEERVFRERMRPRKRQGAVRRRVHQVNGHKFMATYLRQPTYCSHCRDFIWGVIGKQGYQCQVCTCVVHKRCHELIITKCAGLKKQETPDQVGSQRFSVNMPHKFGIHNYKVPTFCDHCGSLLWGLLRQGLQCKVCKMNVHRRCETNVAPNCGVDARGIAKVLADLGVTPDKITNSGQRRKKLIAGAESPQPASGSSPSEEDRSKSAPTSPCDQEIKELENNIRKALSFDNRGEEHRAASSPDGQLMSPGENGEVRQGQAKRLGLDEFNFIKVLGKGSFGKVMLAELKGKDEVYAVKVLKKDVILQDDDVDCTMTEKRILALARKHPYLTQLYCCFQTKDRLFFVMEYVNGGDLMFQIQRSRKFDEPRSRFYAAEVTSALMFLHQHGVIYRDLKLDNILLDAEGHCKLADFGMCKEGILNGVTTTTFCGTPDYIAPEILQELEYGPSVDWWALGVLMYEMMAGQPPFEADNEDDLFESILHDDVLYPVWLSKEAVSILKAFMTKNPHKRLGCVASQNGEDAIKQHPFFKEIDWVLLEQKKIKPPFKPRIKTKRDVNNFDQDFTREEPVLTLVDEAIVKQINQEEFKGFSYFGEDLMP

PKCα = PKCα (Homo sapiens, UniProt P17252); design: key: +—activation; ++—strong activation; details: cPKCs, gene PRKCA; cited from earlier work
HepG2 cells = assay: SMS assay in HepG2 cells; assay type: cell-based, human; details: versus vehicle and PMA (10 nM), FIG. 2C
Text: as §1
(§6) The SMS assay is illustrated in FIG. 1. For the SMS assay, two sets of cells are stained with the cell dye of choice and a customary cell tracker dye (for example cell tracker blue) using established staining techniques (steps 1 and 2). […]
(§7) Finally, live cells are evaluated for viability and analyzed by flow cytometry for the uptake of cell dye in the flow tracker-stained cells (Step 5). […]
as §5, with “line).” for “line). Active PKCm in the SMS assay (FIG. 2A) show a decrease in acceptor cells relative to vehicle at certain concentration.”

PKCδ = PKCδ (Homo sapiens, UniProt Q05655); design: key: +—activation; ++—strong activation; details: nPKCs, gene PRKCD; cited from earlier work
PKCδ, sequence (Q05655 whole entry): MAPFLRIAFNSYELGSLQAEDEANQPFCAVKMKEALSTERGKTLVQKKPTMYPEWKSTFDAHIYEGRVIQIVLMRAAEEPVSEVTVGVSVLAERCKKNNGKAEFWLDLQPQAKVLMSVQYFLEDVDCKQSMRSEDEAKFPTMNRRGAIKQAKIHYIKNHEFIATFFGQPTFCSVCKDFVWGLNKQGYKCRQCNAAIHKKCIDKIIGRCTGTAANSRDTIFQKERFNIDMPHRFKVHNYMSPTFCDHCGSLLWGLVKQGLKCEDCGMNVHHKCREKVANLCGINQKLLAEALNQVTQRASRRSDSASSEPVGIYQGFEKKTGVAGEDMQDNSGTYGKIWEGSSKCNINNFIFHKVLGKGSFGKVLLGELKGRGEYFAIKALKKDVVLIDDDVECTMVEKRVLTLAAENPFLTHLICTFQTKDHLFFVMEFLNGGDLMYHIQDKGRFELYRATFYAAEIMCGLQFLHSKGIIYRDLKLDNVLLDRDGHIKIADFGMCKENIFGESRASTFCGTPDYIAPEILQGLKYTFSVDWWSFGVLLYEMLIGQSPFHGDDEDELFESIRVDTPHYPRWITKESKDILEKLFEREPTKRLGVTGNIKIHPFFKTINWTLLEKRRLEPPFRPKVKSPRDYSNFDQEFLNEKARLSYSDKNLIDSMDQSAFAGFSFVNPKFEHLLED

PKCη = PKCη (Homo sapiens, UniProt P24723); design: key: +—activation; ++—strong activation; details: nPKCs, gene PRKCH; cited from earlier work
PKCη, sequence (P24723 whole entry): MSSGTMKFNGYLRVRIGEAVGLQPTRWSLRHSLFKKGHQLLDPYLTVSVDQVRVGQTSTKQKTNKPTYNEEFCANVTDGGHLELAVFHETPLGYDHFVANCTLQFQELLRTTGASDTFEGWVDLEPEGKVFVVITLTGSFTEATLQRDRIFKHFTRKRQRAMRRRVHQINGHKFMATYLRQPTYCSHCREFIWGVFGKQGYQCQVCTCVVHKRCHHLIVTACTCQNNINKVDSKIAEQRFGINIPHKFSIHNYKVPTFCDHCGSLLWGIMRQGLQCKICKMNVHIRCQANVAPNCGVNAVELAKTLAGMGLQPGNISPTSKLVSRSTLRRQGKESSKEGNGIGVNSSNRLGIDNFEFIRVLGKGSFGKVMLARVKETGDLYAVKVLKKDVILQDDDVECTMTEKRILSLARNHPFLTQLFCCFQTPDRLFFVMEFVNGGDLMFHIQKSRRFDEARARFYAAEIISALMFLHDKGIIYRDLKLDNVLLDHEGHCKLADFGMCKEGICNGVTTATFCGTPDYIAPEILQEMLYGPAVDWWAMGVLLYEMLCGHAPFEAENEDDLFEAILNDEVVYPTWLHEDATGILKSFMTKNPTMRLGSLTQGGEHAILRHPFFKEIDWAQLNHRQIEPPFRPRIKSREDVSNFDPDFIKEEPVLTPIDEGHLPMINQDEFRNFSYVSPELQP

PKCγ = PKCγ (Homo sapiens, UniProt P05129); design: key: +—activation; ++—strong activation; details: cPKCs, gene PRKCG; cited from earlier work
PKCθ = PKCθ (Homo sapiens, UniProt Q04759); design: key: +—activation; ++—strong activation; details: nPKCs, gene PRKCQ; cited from earlier work
PKCθ, sequence (Q04759 whole entry): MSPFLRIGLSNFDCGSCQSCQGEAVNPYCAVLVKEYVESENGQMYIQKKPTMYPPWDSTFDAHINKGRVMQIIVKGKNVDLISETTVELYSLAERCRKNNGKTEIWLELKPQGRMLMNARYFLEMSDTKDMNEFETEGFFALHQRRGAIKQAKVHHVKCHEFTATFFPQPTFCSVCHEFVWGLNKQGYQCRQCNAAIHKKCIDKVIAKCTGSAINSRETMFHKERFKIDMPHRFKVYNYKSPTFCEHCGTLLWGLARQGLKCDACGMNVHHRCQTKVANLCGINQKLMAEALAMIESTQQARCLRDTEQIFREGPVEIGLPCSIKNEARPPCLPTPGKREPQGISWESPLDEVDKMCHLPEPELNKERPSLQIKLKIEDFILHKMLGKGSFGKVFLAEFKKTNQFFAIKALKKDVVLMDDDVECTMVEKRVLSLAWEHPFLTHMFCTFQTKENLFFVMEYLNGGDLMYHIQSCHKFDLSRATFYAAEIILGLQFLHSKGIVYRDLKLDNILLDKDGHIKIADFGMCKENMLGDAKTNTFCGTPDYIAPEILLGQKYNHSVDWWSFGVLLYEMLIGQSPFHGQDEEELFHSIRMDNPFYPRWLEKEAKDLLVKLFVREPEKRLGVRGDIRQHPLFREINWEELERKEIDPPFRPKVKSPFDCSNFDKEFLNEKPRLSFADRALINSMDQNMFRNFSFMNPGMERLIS

U373 cells = assay: SMS assay in U373 cells; assay type: cell-based, human; details: versus vehicle and PMA (10 nM), FIG. 2C
Text: as §1, §6, §7
as §5, with “line).” for “line). Active PKCm in the SMS assay (FIG. 2A) show a decrease in acceptor cells relative to vehicle at certain concentration.”

Compound | effect on cell dye-sharing in the SMS assay [1] | cell dye-sharing in the SMS assay (percentage of acceptor cells) (Hs578T cells) | inhibition of cell dye-sharing in the SMS assay [1] | activation of PKCε (PKCε) | activation of PKCα (PKCα) | activation of PKCδ (PKCδ) | activation of PKCβI/PKCβII (PKCβI/PKCβII) | activation of PKCγ (PKCγ) | also measured
CCCCCCCCCCNc1cc(CO)c2cc[nH]c2c1 [6-(N-Decylamino)-4-Hydroxymethylindole] | did not have any effect | not interfering with cell dye-sharing | – | – | – | – | – | – | –
CCC/C=C/C=C/C(=O)O[C@H]1/C(=C/C(=O)OC)C[C@H]2C[C@H]([C@@H](C)O)OC(=O)C[C@H](O)C[C@@H]3C[C@H](OC(C)=O)C(C)(C)[C@](O)(C[C@@H]4C/C(=C/C(=O)OC)C[C@H](/C=C/C(C)(C)[C@]1(O)O2)O4)O3 [Bryostatin 1] | – | – | marked inhibition of cell dye-sharing | + | + | – | – | – | activation of PKCβI (PKCβI/PKCβII; βI only, activation and translocation in transfected CHO cells (Wender 2011)): + (βI); cell dye-sharing in the SMS assay (percentage of acceptor cells) (HepG2 cells): inhibition of cell dye-sharing
CCCCCC1CC1CC1CC1CCCCCCCC(=O)O (centres unmarked) [FR236924] | did not have any effect | not interfering with cell dye-sharing | – | – | – | – | – | – | –
CC(C)[C@H]1C(=O)N[C@H](CO)Cc2c[nH]c3cccc(c23)N1C [Indolactam V] | – | inhibition of cell dye-sharing | marked inhibition of cell dye-sharing | + | + | ++ | ++ | + | activation of PKCη (PKCη): +
C/C=C(/C)C(=O)O[C@H]1C(C)=C[C@]23C(=O)[C@@H](C=C(CO)[C@@H](O)[C@]12O)[C@H]1[C@@H](C[C@H]3C)C1(C)C [Ingenol-3-angelate] | did not have any effect | – | – | + | + | + | + | + | disconnection of tumour cell types in the assay for disconnection ([1]; several different tumour cell types): does not disconnect
CCCCCCCCCCCCCC(=O)O[C@@H]1[C@@H](C)[C@@]2(O)[C@@H](C=C(CO)C[C@]3(O)C(=O)C(C)=C[C@@H]23)[C@@H]2C(C)(C)[C@]12OC(C)=O [PMA, 12-O-tetradecanoyl-phorbol-13-acetate] | – | inhibition of cell dye-sharing | marked inhibition of cell dye-sharing | + | + | + | + | + | activation of PKCθ (PKCθ): +; activation of PKCη (PKCη): +
O=S(=O)(NCCCCCCc1ccccc1)c1cccc2c(Cl)cccc12 [SC-9] | did not have any effect | not interfering with cell dye-sharing | – | – | – | – | – | – | –
CCC/C=C/C=C/C(=O)O[C@H]1/C(=C/C(=O)OC)C[C@H]2C[C@H]([C@@H](C)O)OC(=O)C[C@H](O)C[C@@H]3C[C@H](OC(C)=O)C(C)(C)[C@](O)(C[C@@H]4C/C(=C/C(=O)OC)C[C@H](/C=C/C(C)(C)[C@]1(O)O2)O4)O3 [bryostatin] | – | inhibition of cell dye-sharing | – | – | – | – | – | – | –
Bryostatin 2 | – | – | marked inhibition of cell dye-sharing | – | – | – | – | – | cell dye-sharing in the SMS assay (percentage of acceptor cells) (U373 cells): inhibition of cell dye-sharing
